Measured values from patent publication US11053204B2, “Pyrimidinyloxy benzene derivatives as herbicides” (FMC Corporation, priority 2015, dated 2021).

Columns and labels:
Format in all cases: in vivo
kochia (Kochia scoparia) = assay: Test C preemergence, plant response rating
[1] = tested on: barnyardgrass (Echinochloa crus-galli); assay: Test C preemergence, plant response rating; conditions: Preemergence
[2] = tested on: galium (catchweed bedstraw, Galium aparine); assay: Test C preemergence, plant response rating
[3] = tested on: nightshade (eastern black nightshade, Solanum ptycanthum); assay: Test C preemergence, plant response rating
[4] = tested on: johnsongrass (Sorghum halepense); assay: Test C preemergence, plant response rating
[5] = tested on: pigweed, palmer (palmer pigweed, Amaranthus palmeri); assay: Test C postemergence, plant response rating; conditions: for Pigweed, Palmer plant response rating: scale 0 to 100 (0 no effect, 100 complete control)
Outline: (§1)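 After sowing in loam–sand blend or silt loam, pots were sprayed preemergence; separately grown 1- to 4-leaf plants were sprayed postemergence. Following 13 to 15 d under greenhouse conditions, injury was rated visually on a 0 to 100 scale.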

[6] = tested on: wild mustard (Sinapis arvensis); assay: Test C postemergence, plant response rating; conditions: for Mustard, Wild plant response rating: scale 0 to 100 (0 no effect, 100 complete control)
Outline: as §1

[7] = tested on: field poppy (Papaver rhoeas); assay: Test C postemergence, plant response rating; conditions: for Field Poppy plant response rating: scale 0 to 100 (0 no effect, 100 complete control)
Outline: as §1

[8] = tested on: windgrass (Apera spica-venti); assay: Test C postemergence, plant response rating
Outline: as §1

[9] = tested on: buckwheat, wild (wild buckwheat, Polygonum convolvulus); assay: Test C postemergence, plant response rating; conditions: for Buckwheat, Wild plant response rating: scale 0 to 100 (0 no effect, 100 complete control)
Outline: as §1

[10] = tested on: Canada thistle (Cirsium arvense); assay: Test C postemergence, plant response rating; conditions: for Canada Thistle plant response rating: scale 0 to 100 (0 no effect, 100 complete control)
Outline: as §1

[11] = tested on: geranium, cutleaf (cutleaf geranium, Geranium dissectum); assay: Test C postemergence, plant response rating; conditions: for Geranium, Cutleaf plant response rating: scale 0 to 100 (0 no effect, 100 complete control)
Outline: as §1

[12] = tested on: speedwell (bird's-eye speedwell, Veronica persica); assay: Test C postemergence, plant response rating; conditions: for Speedwell plant response rating: scale 0 to 100 (0 no effect, 100 complete control)
Outline: as §1

[13] = tested on: wild poinsettia (Euphorbia heterophylla); assay: Test C postemergence, plant response rating; conditions: for Poinsettia, Wild plant response rating: scale 0 to 100 (0 no effect, 100 complete control)
Outline: as §1

[14] = tested on: nightshade (eastern black nightshade, Solanum ptycanthum); assay: Test C postemergence, plant response rating; conditions: for Nightshade plant response rating: scale 0 to 100 (0 no effect, 100 complete control)
Outline: as §1

[15] = tested on: surinam grass (Brachiaria decumbens); assay: Test C postemergence, plant response rating
Outline: as §1

[16] = tested on: johnsongrass (Sorghum halepense); assay: Test C postemergence, plant response rating; conditions: for Johnsongrass plant response rating: scale 0 to 100 (0 no effect, 100 complete control)
Outline: as §1

[17] = tested on: field violet (Viola arvensis); assay: Test C postemergence, plant response rating; conditions: for Field Violet plant response rating: scale 0 to 100 (0 no effect, 100 complete control)
Outline: as §1

[18] = 125 g ai/ha, scale 0 to 100 (0 no effect, 100 complete control)

C=C(Br)COC(=O)c1c(Br)cccc1Oc1ncc(Cl)cn1 [Compound 61]
Plant response rating, Kochia (kochia (Kochia scoparia); 16 g ai/ha, scale 0 to 100): 0 | Plant response rating, Kochia (kochia (Kochia scoparia); 31 g ai/ha, scale 0 to 100): 5 | Plant response rating, Kochia (kochia (Kochia scoparia); 62 g ai/ha, scale 0 to 100): 5 | Plant response rating, Kochia (kochia (Kochia scoparia); 125 g ai/ha, scale of 0 to 100): 30 | Plant response rating, Barnyardgrass ([1]; 62 g ai/ha, scale of 0 to 100): 50 | Plant response rating, Barnyardgrass ([1]; 125 g ai/ha, scale of 0 to 100): 65 | Plant response rating, Barnyardgrass ([1]; 16 g ai/ha, scale 0 to 100): 0 | Plant response rating, Barnyardgrass ([1]; 31 g ai/ha, scale 0 to 100): 0 | Plant response rating, Galium ([2]; 16 g ai/ha, scale 0 to 100): 0 | Plant response rating, Galium ([2]; 31 g ai/ha, scale 0 to 100): 0 | Plant response rating, Galium ([2]; 62 g ai/ha, scale of 0 to 100): 10 | Plant response rating, Galium ([2]; 125 g ai/ha, scale of 0 to 100): 15 | Plant response rating, Nightshade ([3]; 16 g ai/ha, scale 0 to 100): 60 | Plant response rating, Nightshade ([3]; 31 g ai/ha, scale 0 to 100): 60 | Plant response rating, Nightshade ([3]; 62 g ai/ha, scale 0 to 100): 50 | Plant response rating, Nightshade ([3]; 125 g ai/ha, scale of 0 to 100): 75 | Plant response rating, Johnsongrass ([4]; 16 g ai/ha, scale 0 to 100): 0 | Plant response rating, Johnsongrass ([4]; 31 g ai/ha, scale 0 to 100): 0 | Plant response rating, Johnsongrass ([4]; 62 g ai/ha, scale 0 to 100): 0 | Plant response rating, Johnsongrass ([4]; 125 g ai/ha, scale of 0 to 100): 20

O=C(CCCC(F)(F)F)c1c(Cl)cccc1Oc1ncc(Cl)cn1 [Compound 143]
Plant response rating, Kochia (kochia (Kochia scoparia); 31 g ai/ha, scale 0 to 100): 80 | Plant response rating, Kochia (kochia (Kochia scoparia); 62 g ai/ha, scale 0 to 100): 90 | Plant response rating, Kochia (kochia (Kochia scoparia); 125 g ai/ha, scale of 0 to 100): 90 | Plant response rating, Galium ([2]; 31 g ai/ha, scale 0 to 100): 30 | Plant response rating, Galium ([2]; 62 g ai/ha, scale 0 to 100): 80 | Plant response rating, Galium ([2]; 125 g ai/ha, scale of 0 to 100): 80 | Plant response rating, Johnsongrass ([4]; 31 g ai/ha, scale 0 to 100): 25 | Plant response rating, Johnsongrass ([4]; 62 g ai/ha, scale 0 to 100): 50 | Plant response rating, Johnsongrass ([4]; 125 g ai/ha, scale of 0 to 100): 80 | Plant response rating, Pigweed, Palmer ([5]; 16 g ai/ha, scale of 0 to 100): 45 | Plant response rating, Pigweed, Palmer ([5]; 31 g ai/ha, scale 0 to 100): 75 | Pigweed, Palmer plant response rating ([5]; 62 g ai/ha): 80 | Pigweed, Palmer plant response rating ([5]; 125 g ai/ha): 100 | Plant response rating, Mustard, Wild ([6]; 16 g ai/ha, scale of 0 to 100): 100 | Plant response rating, Mustard, Wild ([6]; 31 g ai/ha, scale 0 to 100): 100 | Mustard, Wild plant response rating ([6]; 62 g ai/ha): 100 | Mustard, Wild plant response rating ([6]; 125 g ai/ha): 100 | Plant response rating, Field Poppy ([7]; 16 g ai/ha, scale of 0 to 100): 80 | Plant response rating, Field Poppy ([7]; 31 g ai/ha, scale 0 to 100): 90 | Field Poppy plant response rating ([7]; 62 g ai/ha): 90 | Field Poppy plant response rating ([7]; 125 g ai/ha): 100 | Plant response rating, Windgrass ([8]; 16 g ai/ha, scale of 0 to 100): 30 | Plant response rating, Windgrass ([8]; 31 g ai/ha, scale 0 to 100): 35 | Windgrass plant response rating [8, 18]: 40 | Plant response rating, Buckwheat, Wild ([9]; 16 g ai/ha, scale of 0 to 100): 75 | Plant response rating, Buckwheat, Wild ([9]; 31 g ai/ha, scale 0 to 100): 85 | Buckwheat, Wild plant response rating ([9]; 62 g ai/ha): 100 | Buckwheat, Wild plant response rating ([9]; 125 g ai/ha): 100 | Plant response rating, Canada Thistle ([10]; 16 g ai/ha, scale of 0 to 100): 85 | Plant response rating, Canada Thistle ([10]; 31 g ai/ha, scale 0 to 100): 85 | Canada Thistle plant response rating ([10]; 62 g ai/ha): 90 | Canada Thistle plant response rating ([10]; 125 g ai/ha): 100 | Plant response rating, Geranium, Cutleaf ([11]; 16 g ai/ha, scale of 0 to 100): 30 | Plant response rating, Geranium, Cutleaf ([11]; 31 g ai/ha, scale 0 to 100): 50 | Geranium, Cutleaf plant response rating ([11]; 62 g ai/ha): 60 | Geranium, Cutleaf plant response rating ([11]; 125 g ai/ha): 75 | Plant response rating, Speedwell ([12]; 16 g ai/ha, scale of 0 to 100): 80 | Plant response rating, Speedwell ([12]; 31 g ai/ha, scale 0 to 100): 80 | Speedwell plant response rating ([12]; 62 g ai/ha): 85 | Speedwell plant response rating ([12]; 125 g ai/ha): 100 | Plant response rating, Poinsettia, Wild ([13]; 16 g ai/ha, scale of 0 to 100): 55 | Plant response rating, Poinsettia, Wild ([13]; 31 g ai/ha, scale 0 to 100): 65 | Poinsettia, Wild plant response rating ([13]; 62 g ai/ha): 70 | Poinsettia, Wild plant response rating ([13]; 125 g ai/ha): 75 | Plant response rating, Nightshade ([14]; 16 g ai/ha, scale of 0 to 100): 65 | Plant response rating, Nightshade ([14]; 31 g ai/ha, scale 0 to 100): 85 | Nightshade plant response rating ([14]; 62 g ai/ha): 90 | Nightshade plant response rating ([14]; 125 g ai/ha): 90 | Plant response rating, Surinam Grass ([15]; 16 g ai/ha, scale of 0 to 100): 5 | Plant response rating, Surinam Grass ([15]; 31 g ai/ha, scale 0 to 100): 10 | Surinam Grass plant response rating [15, 18]: 20 | Plant response rating, Johnsongrass ([16]; 16 g ai/ha, scale of 0 to 100): 5 | Plant response rating, Johnsongrass ([16]; 31 g ai/ha, scale 0 to 100): 5 | Johnsongrass plant response rating ([16]; 62 g ai/ha): 10 | Johnsongrass plant response rating ([16]; 125 g ai/ha): 20 | Plant response rating, Field Violet ([17]; 16 g ai/ha, scale of 0 to 100): 75 | Plant response rating, Field Violet ([17]; 31 g ai/ha, scale 0 to 100): 80 | Field Violet plant response rating ([17]; 62 g ai/ha): 98 | Field Violet plant response rating ([17]; 125 g ai/ha): 100
